# Like-named read-outs stand apart in the source and are kept apart here.
# Legend:
# E. faecalis = assay: Broth microdilution MIC, European bacteraemia isolates 2010-2012; type: cell-based, Enterococcus faecalis
# How it was run: (§1)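 Bacteraemia isolates from European, Israeli, Russian, Turkish and Ukrainian hospitals (2010-2012) tested centrally by CLSI M07-A9 broth microdilution in cation-adjusted Mueller-Hinton broth with 0.002% polysorbate-80. QC strains E. faecalis ATCC 29212 and S. aureus ATCC 29213; interpretation per CLSI M100-S23 and EUCAST 2013.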
# [1] = tested on: Coagulase-negative staphylococci; assay: as above; type: cell-based, coagulase-negative staphylococci (CoNS)
# How it was run: as §1
# [2] = E. faecalis (445), at ≦0.008 mg/L
# [3] = Enterococcus faecalis, read-out: cumulative % inhibited at MIC
# [4] = CoNS, Methicillin-resistant (509), at ≦0.008 mg/L
# [5] = CoNS, Methicillin-susceptible (137), at ≦0.008 mg/L
# [6] = CoNS, Teicoplanin MIC ≧8 mg/L (72), at ≦0.008 mg/L
# [7] = Table 1, CoNS, Methicillin-resistant (509)
# [8] = Table 1, CoNS, Methicillin-susceptible (137)
# [9] = Table 2, Coagulase-negative staphylococci (646)
# [10] = read-out: cumulative % inhibited at MIC
compound,measurement,setting,value
"CN[C@H](CC(C)C)C(=O)N[C@H]1C(=O)N[C@@H](CC(N)=O)C(=O)N[C@H]2C(=O)N[C@H]3C(=O)N[C@H](C(=O)N[C@H](C(=O)O)c4cc(O)cc(O)c4-c4cc3ccc4O)[C@H](O[C@H]3C[C@](C)(N)[C@@H](O)[C@H](C)O3)c3ccc(c(Cl)c3)Oc3cc2cc(c3O[C@@H]2O[C@H](CO)[C@@H](O)[C@H](O)[C@H]2O[C@H]2C[C@](C)(NCc3ccc(-c4ccc(Cl)cc4)cc3)[C@@H](O)[C@H](C)O2)Oc2ccc(cc2Cl)[C@H]1O [Oritavancin, N-(4-(4-chlorophenyl)benzyl)A82846B]",Number inhibited at MIC,"E. faecalis; E. faecalis (445), at 0.015 mg/L",204
same,Number inhibited at MIC,"E. faecalis; E. faecalis (445), at 0.03 mg/L",89
same,Number inhibited at MIC,"E. faecalis; E. faecalis (445), at 0.06 mg/L",30
same,Number inhibited at MIC,"E. faecalis; E. faecalis (445), at 0.12 mg/L",13
same,Number inhibited at MIC,"E. faecalis; E. faecalis (445), at 0.25 mg/L",4
same,Number inhibited at MIC,"E. faecalis; E. faecalis (445), at 0.5 mg/L",1
same,Number inhibited at MIC,E. faecalis; [2],104
same,cumulative % inhibited at MIC,E. faecalis; [2],23.4%
same,MIC50,E. faecalis; Enterococcus faecalis,0.015 µg/mL
same,MIC90,E. faecalis; Enterococcus faecalis,0.06 µg/mL
same,MIC,"E. faecalis; Enterococcus faecalis, read-out: MIC values",0.12 to 0.5 µg/mL
same,inhibition at 0.015 µg/mL,E. faecalis; [3],69.2%
same,inhibition at 0.03 µg/mL,E. faecalis; [3],89.2%
same,inhibition at 0.06 µg/mL,E. faecalis; [3],96%
same,inhibition at 0.12 µg/mL,E. faecalis; [3],98.9%
same,inhibition at 0.25 µg/mL,E. faecalis; [3],99.8%
same,inhibition at 0.5 µg/mL,E. faecalis; [3],100%
same,MIC 50%,"E. faecalis; Table 1, E. faecalis (445)",0.015 µg/mL
same,MIC 90%,"E. faecalis; Table 1, E. faecalis (445)",0.06 µg/mL
same,MIC Range,"E. faecalis; Table 2, E. faecalis (445), includes four VanA-phenotype strains",≦0.008-0.5 mg/L
same,concentration inhibiting all strains,"E. faecalis; all E. faecalis, including resistant subsets",≤ 0.5 mg/L
same,MIC50,[1],0.03 µg/mL
same,MIC90,[1],0.06 µg/mL
same,MIC50 and MIC90 lower than linezolid,[1]; CoNS isolates,16 fold
same,MIC values lower than vancomycin,[1]; CoNS isolates,32- to 64 fold
same,MIC results relative to strains with teicoplanin MIC≦4 mg/L,[1]; CoNS with decreased susceptibility to teicoplanin (MIC≧8 mg/L),two-fold higher
same,MIC,"[1]; CoNS with decreased susceptibility to teicoplanin (MIC≧8 mg/L), read-out: highest MIC value",0.25 µg/mL
same,Number inhibited at MIC,"[1]; CoNS, Methicillin-resistant (509), at 0.015 mg/L",77
same,Number inhibited at MIC,"[1]; CoNS, Methicillin-resistant (509), at 0.03 mg/L",181
same,Number inhibited at MIC,"[1]; CoNS, Methicillin-resistant (509), at 0.06 mg/L",114
same,Number inhibited at MIC,"[1]; CoNS, Methicillin-resistant (509), at 0.12 mg/L",33
same,Number inhibited at MIC,"[1]; CoNS, Methicillin-resistant (509), at 0.25 mg/L",4
same,Number inhibited at MIC,[1]; [4],100
same,cumulative % inhibited at MIC,[1]; [4],19.7%
same,Number inhibited at MIC,"[1]; CoNS, Methicillin-susceptible (137), at 0.015 mg/L",28
same,Number inhibited at MIC,"[1]; CoNS, Methicillin-susceptible (137), at 0.03 mg/L",50
same,Number inhibited at MIC,"[1]; CoNS, Methicillin-susceptible (137), at 0.06 mg/L",21
same,Number inhibited at MIC,"[1]; CoNS, Methicillin-susceptible (137), at 0.12 mg/L",1
same,Number inhibited at MIC,[1]; [5],37
same,cumulative % inhibited at MIC,[1]; [5],27.0%
same,Number inhibited at MIC,"[1]; CoNS, Teicoplanin MIC ≧8 mg/L (72), at 0.015 mg/L",1
same,inhibition at 0.015 µg/mL,"[1]; CoNS, Teicoplanin MIC ≧8 mg/L (72), at 0.015 mg/L, read-out: cumulative % inhibited at MIC",2.8%
same,Number inhibited at MIC,"[1]; CoNS, Teicoplanin MIC ≧8 mg/L (72), at 0.03 mg/L",15
same,inhibition at 0.03 µg/mL,"[1]; CoNS, Teicoplanin MIC ≧8 mg/L (72), at 0.03 mg/L, read-out: cumulative % inhibited at MIC",23.6%
same,Number inhibited at MIC,"[1]; CoNS, Teicoplanin MIC ≧8 mg/L (72), at 0.06 mg/L",36
same,inhibition at 0.06 µg/mL,"[1]; CoNS, Teicoplanin MIC ≧8 mg/L (72), at 0.06 mg/L, read-out: cumulative % inhibited at MIC",73.6%
same,Number inhibited at MIC,"[1]; CoNS, Teicoplanin MIC ≧8 mg/L (72), at 0.12 mg/L",15
same,inhibition at 0.12 µg/mL,"[1]; CoNS, Teicoplanin MIC ≧8 mg/L (72), at 0.12 mg/L, read-out: cumulative % inhibited at MIC",94.4%
same,Number inhibited at MIC,"[1]; CoNS, Teicoplanin MIC ≧8 mg/L (72), at 0.25 mg/L",4
same,inhibition at 0.25 µg/mL,"[1]; CoNS, Teicoplanin MIC ≧8 mg/L (72), at 0.25 mg/L, read-out: cumulative % inhibited at MIC",100%
same,Number inhibited at MIC,[1]; [6],1
same,cumulative % inhibited at MIC,[1]; [6],1.4%
same,MIC50,[1]; [7],0.03 µg/mL
same,MIC90,[1]; [7],0.06 µg/mL
same,MIC50,[1]; [8],0.03 µg/mL
same,MIC90,[1]; [8],0.06 µg/mL
same,MIC50,"[1]; Table 1, CoNS, Teicoplanin MIC ≧8 mg/L (72), read-out: MIC 50%",0.06 µg/mL
same,MIC90,"[1]; Table 1, CoNS, Teicoplanin MIC ≧8 mg/L (72), read-out: MIC 90%",0.12 µg/mL
same,MIC50,[1]; [9],0.03 µg/mL
same,MIC90,[1]; [9],0.06 µg/mL
same,MIC Range,[1]; [9],≦0.008-0.25 mg/L
same,inhibition at 0.015 µg/mL,[1]; [10],41.8%
same,inhibition at 0.03 µg/mL,[1]; [10],79.4%
same,inhibition at 0.06 µg/mL,[1]; [10],96.7%
same,inhibition at 0.12 µg/mL,[1]; [10],100%

# From US20160206688A1, “METHODS FOR TREATING BACTEREMIA AND OSTEOMYELITIS USING ORITAVANCIN” (THE MEDICINES COMPANY, priority 2013, published 2016)
